Data reported in publication PMC4929710, “Specificity and mechanism of action of alpha-helical membrane-active peptides interacting with model and biological membranes by single-molecule force spectroscopy” (Scientific Reports, 2016).
Read-outs that look alike come from different tables or passages of the source.

Legend:
[1] = Circular dichroism (CD) analysis; assay type: physicochemical; settings: for α-Helix (%) 50% TFE / α-Helix (%) Benign: relative to molar ellipticity of A12L/A20L in 50% TFE; for [θ]222 Benign / [θ]222 50% TFE: CD, 25 °C; for [θ]222 Benign: benign buffer pH 7.0, 100 mM KCl, 50 mM KH2PO4/K2HPO4; for [θ]222 50% TFE: benign buffer:TFE 1:1 vol/vol; for α-Helix (%) Benign: benign buffer
Method: The secondary structures of the peptides were determined using a Jasco J-810 CD spectrometer (Jasco, Easton, MD) at 25 °C [12]. The benign buffer (pH 7.0, 100 mM KCl, 50 mM KH2PO4/K2HPO4) was used to simulate the hydrophilic environment and 50% 2,2,2-trifluoroethanol (TFE) (benign buffer: TFE = 1: 1, vol/vol) was used to simulate the hydrophobic environment. The mean residue molar ellipticities at 222 nm, [θ]222 (degree·cm^2·dmol^−1), were used to calculate the relative helical contents of MAPs[24].
CD spectroscopy illustrated the secondary structure of peptide analogs under benign environment and 50% TFE to mimic the hydrophobic conditions of cell membranes. CD results are shown in Supplementary Table S2 and Fig. S1. […] The helical content (%) of peptides in two groups relative to the molar ellipticity value of the peptide A12L/A20L in 50% TFE. In addition, except the peptide of V13E, the relative helicity of the peptides are in the same order of V13L>V13A>V13S>V13K and A12L/A20L>A20L>L6A>L6A/L17A in the benign and hydrophobic environments and also in the same order with the peptide hydrophobicity.

PC/Chol (8:1 w/w) LUVs = experiment: Single-molecule force spectroscopy (AFM); assay type: binding; settings: RMS ± SD; N-terminal Cys peptide on AFM tip via PEG linker; normal eukaryotic model membrane
Text: (§1) Based on the above results, five selected peptides of V13L, A12L/A20L, V13K, V13E, and L6A/L17A, with different hydrophobicity and charges were used to examine the interaction probabilities and forces between peptides and membranes, both on the lipid model membranes and on the biological membranes by SMFS based on AFM, respectively. A cysteine residue was covalently introduced to the N-terminus of peptides and provided a free sulfhydryl group to modify the tips of the AFM. A PEG linker was used since each heterobifunctional PEG–NHS linker (approximately 20 nm) can only covalently connect with a single peptide molecule, which guarantees a single-molecule interaction between MAPs and biological membranes in real time[19]. If an AFM tip was functionalized with two or more peptides, where several peaks were recorded. In the reports, data with two peaks were not collected and calculated. For one force–distance cycle, one peptide-functionalized AFM tip approached the model and biological membranes right on the top, and the subsequent tip was withdrawn from the cell membranes to retrace the process. […] In addition, blocking experiment was used to test the specificity of these force events. As the electrostatic attraction is one important reason for peptides approaching model membranes and biological membranes, the Tris-HCl buffer including plenty amino groups[20] was injected into the working chamber and inhibits the interactions between MAPs and model membranes/biological membranes. […] The unbinding forces of V13L against different model membranes and biological membranes with the loading rate of 1 × 10^5 pN s^−1 are shown in Fig. 3c,f–h,j–l.
Lipids using the freeze-thaw method as described previously, followed by extrusion through […] double-stacked nuclepore filters using an Mini-Extruder (Avanti Polar Lipids, Inc.)[11][27].
(§2) The AFM tip was first washed with concentrated sulfuric acid and hydrogen peroxide (3:1, v:v). The tip was dried using ozone (O3) for 15 min and dried overnight in a dryer. The tip was then modified with APTES under an argon atmosphere and the peptide connected with a PEG–NHS linker. Finally, the AFM tip linked with the peptide was washed three times in PBS and kept at 4 °C. A 500-μL LUV suspension was deposited on Lys coated glass and the LUVs were absorbed on the surface for 1 h at 65 °C [9][29]. A. laidlawii was deposited on poly-L-lysine coated glass and absorbed for 1 h at 37 °C [30]. The 3T3-L1 and HeLa cells were cultured on glass slides in Dulbecco’s modified Eagle’s medium (DMEM). Before performing force spectroscopy experiments, the cells were washed with fresh DMEM three times to remove the cell metabolites. Isolation of chicken erythrocytes was carried out at room temperature. […]

A. laidlawii cells = experiment: Single-molecule force spectroscopy (AFM); assay type: binding, Acholeplasma laidlawii; settings: RMS ± SD; N-terminal Cys peptide on AFM tip via PEG linker
Text: as §1
as §2, with “temperature. Then the erythrocytes were washed three times in 2 mL PBS buffer by centrifuge (1,000 rpm) and resuspended in PBS buffer. 200 μL erythrocyte suspension were deposited onto poly-L-lysine coated glass for 20 min[10].” for “temperature.”

S. epidermidis ATCC12228 = assay type: cell-based
Method: (§3) Then, 10 μL of peptides was added. […] All assays were repeated in triplicate.

P. aeruginosa ATCC27853 = assay type: cell-based
Method: as §3

S. aureus ATCC25923 = assay type: cell-based
Method: as §3

E. coli ATCC25922 = assay type: cell-based
Method: as §3

[2] = test system: gram-negative bacteria (P. aeruginosa and E. coli); assay type: cell-based
Method: as §3

SGC7901 cells = assay type: cell-based, human; settings: 24 h
Method: (§4) The MTT cell proliferation assay was used to investigate the anticancer activity and cytotoxicity of MAPs against cancer cell lines (HeLa, A549, SGC-7901, and B16) and normal cells (3T3-L1), respectively. Cells (5 × 10^3) were seeded in 96-well plates and incubated overnight. The peptide samples were then added to cells with final concentrations ranging from 1 μM to 125 μM. After 24 h, 20 μL of 5 mg/mL MTT solution in PBS was added to the cells and treated for 4 h at 37 °C. The formazan crystals were dissolved by 150 μL of dimethyl sulfoxide (DMSO). Finally, the absorbance was determined at 492 nm. The results were expressed as IC50, representing the concentration at which cell viability was reduced by 50%. All assays were repeated in triplicate.

A549 cells = assay type: cell-based, human; settings: 24 h
Method: as §4

HeLa cells = assay type: cell-based, human; settings: 24 h
Method: as §4

B16 cells = assay type: cell-based, mouse; settings: 24 h
Method: as §4

[3] = test system: chicken erythrocyte membranes; experiment: Single-molecule force spectroscopy (AFM); assay type: binding; settings: for Unbinding force Chicken erythrocyte: RMS ± SD, N-terminal Cys peptide on AFM tip via PEG linker
Text: as §1
The AFM tip was first washed with concentrated sulfuric acid and hydrogen peroxide (3:1, v:v). The tip was dried using ozone (O3) for 15 min and dried overnight in a dryer. The tip was then modified with APTES under an argon atmosphere and the peptide connected with a PEG–NHS linker. Finally, the AFM tip linked with the peptide was washed three times in PBS and kept at 4 °C. A 500-μL LUV suspension was deposited on Lys coated glass and the LUVs were absorbed on the surface for 1 h at 65 °C [9][29]. A. laidlawii was deposited on poly-L-lysine coated glass and absorbed for 1 h at 37 °C [30]. The 3T3-L1 and HeLa cells were cultured on glass slides in Dulbecco’s modified Eagle’s medium (DMEM). Before performing force spectroscopy experiments, the cells were washed with fresh DMEM three times to remove the cell metabolites. Isolation of chicken erythrocytes was carried out at room temperature. Then the erythrocytes were washed three times in 2 mL PBS buffer by centrifuge (1,000 rpm) and resuspended in PBS buffer. 200 μL erythrocyte suspension were deposited onto poly-L-lysine coated glass for 20 min[10]. The force measurements of MAPs with LUVs mimicking membranes and living cells were performed using the AFM5500 (Agilent Technologies, Chandler, AZ, USA)[19].

[4] = MH medium, 5 × 10^5 CFU/mL, 24 h, 37 °C, triplicate
[5] = geometric mean of MIC values from two gram-negative strains
[6] = MTT, 1-125 μM, triplicate, read-out: IC50 SGC7901
[7] = MTT, 1-125 μM, triplicate, read-out: IC50 A549
[8] = MTT, 1-125 μM, triplicate, read-out: IC50 HeLa
[9] = MTT, 1-125 μM, triplicate, read-out: IC50 B16

Molecule	α-Helix (%) 50% TFE [1]	[θ]222 Benign [1]	[θ]222 50% TFE [1]	α-Helix (%) Benign [1]	Unbinding force PC/Chol (PC/Chol (8:1 w/w) LUVs)	Unbinding force A. laidlawii (A. laidlawii cells)	G+ MIC S. epidermidis ATCC12228 (S. epidermidis ATCC12228; [4])	G− MIC P. aeruginosa ATCC27853 (P. aeruginosa ATCC27853; [4])	G+ MIC S. aureus ATCC25923 (S. aureus ATCC25923; [4])	G− MIC E. coli ATCC25922 (E. coli ATCC25922; [4])	G− MIC GM [2, 5]	IC50 (SGC7901 cells; [6])	IC50 (A549 cells; [7])	IC50 (HeLa cells; [8])	IC50 (B16 cells; [9])	Unbinding force Chicken erythrocyte [3]	G+ MIC S. epidermidis ATCC12228 (S. epidermidis ATCC12228; ATCC12228, 24 h)	G− MIC P. aeruginosa ATCC27853 (P. aeruginosa ATCC27853; ATCC27853, 24 h)	G+ MIC S. aureus ATCC25923 (S. aureus ATCC25923; ATCC25923, 24 h)	G− MIC E. coli ATCC25922 (E. coli ATCC25922; ATCC25922, 24 h)	further results
CC[C@H](C)[C@H](NC(=O)[C@H](C)NC(=O)[C@H](CCCCN)NC(=O)[C@H](CC(C)C)NC(=O)[C@H](C)NC(=O)[C@@H](NC(=O)[C@H](Cc1cnc[nH]1)NC(=O)[C@H](CC(C)C)NC(=O)[C@@H](NC(=O)[C@@H](NC(=O)[C@H](CCCCN)NC(=O)[C@H](CCCCN)NC(=O)[C@H](C)NC(=O)[C@H](CO)NC(=O)[C@H](CCCCN)NC(=O)[C@H](Cc1ccccc1)NC(=O)[C@@H](NC(=O)[C@H](CCCCN)NC(=O)[C@H](CC(C)C)NC(=O)[C@H](Cc1ccccc1)NC(=O)[C@H](CO)NC(=O)[C@H](CCCCN)NC(=O)[C@H](Cc1c[nH]c2ccccc12)NC(=O)[C@H](CCCCN)NC(C)=O)[C@@H](C)O)[C@@H](C)O)C(C)C)[C@@H](C)O)C(=O)N[C@@H](CO)C(=O)N[C@@H](CO)C(N)=O [Peptide V13K]	69.85%	−4236.54 degree·cm^2·dmol^−1	−30268.40 degree·cm^2·dmol^−1	9.77%	101 ± 37 pN	51 ± 18 pN	4 µM	8 µM	32 µM	8 µM	8 µM	18.9 µM	24.4 µM	13.1 µM	11.9 µM	87 ± 39 pN					
Ac-KWKSFAKTFKSAKKTVAHTALKAISS-NH2 [L6A/L17A]	65.58%	−3589.82 degree·cm^2·dmol^−1	−28421.80 degree·cm^2·dmol^−1	8.28%	100 ± 34 pN	41 ± 15 pN	125 µM	125 µM	125 µM	125 µM	125 µM	> 125 µM	> 125 µM	> 125 µM	> 125 µM	78 ± 39 pN					
Ac-KWKSFLKTFKSAEKTVLHTALKAISS-NH2 [Peptide V13E]	43.13%	−3876.86 degree·cm^2·dmol^−1	−18689.59 degree·cm^2·dmol^−1	8.95%	89 ± 34 pN	55 ± 12 pN										59 ± 35 pN	125 µM	125 µM	125 µM	64 µM	G− MIC GM [2]: 89.44 µM; IC50 (SGC7901 cells): 92 µM; IC50 (A549 cells): 110 µM; IC50 (HeLa cells): 73.7 µM; IC50 (B16 cells): 120 µM
Ac-KWKSFLKTFKSALKTVLHTALKAISS-NH2 [Peptide V13L]	90.73%	−10502.62 degree·cm^2·dmol^−1	−39315.30 degree·cm^2·dmol^−1	24.24%	98 ± 30 pN	27 ± 9 pN										76 ± 34 pN	2 µM	8 µM	8 µM	4 µM	G− MIC GM [2]: 5.66 µM; IC50 (SGC7901 cells): 2 µM; IC50 (A549 cells): 2.8 µM; IC50 (HeLa cells): 4.86 µM; IC50 (B16 cells): 3.51 µM; Interaction probability of the force signal ([3]; chicken erythrocyte membranes, out of about 1000 force cycles): about 18%
